Measurements from patent US11964949B2, “Substituted phenyloxazolidinones for antimicrobial therapy” (priority 2015, dated 2024).
In brackets after ≈: the same amount, converted by molar mass. Where two headings read alike, the source gives them in different places.

How the values were obtained:
[1] = test system: mitochondrial protein synthesis (MPS) in H9C2 cells; assay: In vitro assay for MPS inhibition (COX-1 / SDH-A ELISA in H9C2 cells); type: cell-based, rat; conditions: Rattus norvegicus, read-out: IC50 (μM) MPS inhibition
[2] = test system: Mycobacterium tuberculosis H37Rv; assay: In vitro assay for antimicrobial susceptibility (microplate Alamar blue, MIC); type: cell-based; conditions: for MIC: Mycobacterium tuberculosis, read-out: MIC (μg/mL) against H37Rv
[3] = 120 h, H9C2 cells, 5 days incubation
[4] = M. tuberculosis H37Rv, 7H9 broth, Alamar blue

Row | Compound | MIC [2, 4] | other results
1 | O=C1O[C@@H](Cn2ccnn2)CN1c1ccc(N2CCCSCCC2)c(F)c1 [OBD-001, (R)-5-((1H-1,2,3-triazol-1-yl)methyl)-3-(3-fluoro-4-(1,5-thiazocan-5-yl)phenyl)oxazolidin-2-one] | 0.3 µg/mL (≈ 0.766 µM) | IC50 [1, 3]: 12 µM
2 | O=C1O[C@@H](Cn2ccnn2)CN1c1ccc(N2CCC[S+]([O-])CCC2)c(F)c1 [OBD-002, (R)-5-((1H-1,2,3-Triazol-1-yl)methyl)-3-(3-fluoro-4-(1-oxido-1,5-thiazocan-5-yl)phenyl)oxazolidin-2-one] | 1.6 µg/mL (≈ 3.93 µM) | IC50 [1, 3]: 29 µM
3 | CCCC(=O)NC[C@H]1CN(c2ccc(N3CCCSCCC3)c(F)c2)C(=O)O1 [OBD-003, (S)—N-((3-(3-fluoro-4-(1,5-thiazocan-5-yl)phenyl)-2-oxooxazolidin-5-yl)methyl)buty ramide] | 0.33 µg/mL (≈ 0.806 µM) | IC50 [1, 3]: > 100 µM
4 | CCCC(=O)NC[C@H]1CN(c2ccc(N3CCC[S+]([O-])CCC3)c(F)c2)C(=O)O1 [OBD-004, (S)—N-((3-(3-Fluoro-4-(1-oxido-1,5-thiazocan-5-yl)phenyl)-2-oxooxazolidin-5-yl)methyl)butyramide] | 3.34 µg/mL (≈ 7.84 µM) | IC50 [1, 3]: 15.8 µM
5 | CCCC(=O)NC[C@H]1CN(c2ccc(N3CCCSCC3)c(F)c2)C(=O)O1 [OBD-005, (S)—N-((3-(3-fluoro-4-(1,4-thiazepan-4-yl)phenyl)-2-oxooxazolidin-5-yl)methyl)buty ramide] | 0.055 µg/mL (≈ 0.139 µM) | IC50 [1, 3]: 15.6 µM
6 | CCCC(=O)NC[C@H]1CN(c2ccc(N3CCC[S+]([O-])CC3)c(F)c2)C(=O)O1 (stereo partly drawn) [OBD-006, N-(((5S)-3-(3-Fluoro-4-(1-oxido-1,4-thiazepan-4-yl)phenyl)-2-oxooxazolidin-5-yl)methyl)butyramide] | 0.49 µg/mL (≈ 1.19 µM) | IC50 [1, 3]: 7.49 µM
7 | CCCC(=O)NC[C@H]1CN(c2ccc(N3CCCS(=O)(=O)CC3)c(F)c2)C(=O)O1 [OBD-007, (S)—N-((3-(4-(1,1-Dioxido-1,4-thiazepan-4-yl)-3-fluorophenyl)-2-oxooxazolidin-5-yl)methyl)butyramide] | 0.46 µg/mL (≈ 1.08 µM) | IC50 [1, 3]: 19.8 µM
8 | O=C1O[C@@H](Cn2cncn2)CN1c1ccc(N2CCCSCCC2)c(F)c1 [OBD-008, (R)-5-((1H-1,2,4-triazol-1-yl)methyl)-3-(3-fluoro-4-(1,5-thiazocan-5-yl)phenyl)oxazolidin-2-one] | 3.51 µg/mL (≈ 8.97 µM) | IC50 [1, 3]: 29.9 µM
9 | O=C1O[C@@H](Cn2cncn2)CN1c1ccc(N2CCC[S+]([O-])CCC2)c(F)c1 [OBD-009, (R)-5-((1H-1,2,4-Triazol-1-yl)methyl)-3-(3-fluoro-4-(1-oxido-1,5-thiazocan-5-yl)phenyl)oxazolidin-2-one] | 21.1 µg/mL (≈ 51.7 µM) | IC50 [1, 3]: > 100 µM
10 | CCCC(=O)NC[C@H]1CN(c2ccc(N3C4CCC3CSC4)c(F)c2)C(=O)O1 [OBD-016, N—(((S)-3-(4-(3-thia-8-aza-bicyclo[3.2.1]octan-8-yl)-3-fluorophenyl)-2-oxooxazolidin-5-yl)methyl)butyramide] | – | IC50 ([1]; H9c2, 120 h): 13 µM; MIC ([2]; H37RV): 0.486 µg/mL (≈ 1.19 µM)
11 | O=C1O[C@@H](Cn2cncn2)CN1c1ccc(N2[C@@H]3CC[C@H]2C[S+]([O-])C3)c(F)c1 (stereo partly drawn) [OBD-018, (5R)-5-((1H-1,2,4-Triazol-1-yl)methyl)-3-(3-fluoro-4-((1R,5S)-3-oxido-3-thia-8-azabicyclo[3.2.1]octan-8-yl)phenyl)oxazolidin-2-one] | – | MIC ([2]; H37RV): > 32 µg/mL
12 | O=C1O[C@@H](Cn2cncn2)CN1c1ccc(N2C3CCC2CSC3)c(F)c1 [OBD-021, (5R)-5-((1H-1,2,4-triazol-1-yl)methyl)-3-(4-(3-thia-8-aza-bicyclo[3.2.1]octan-8-yl)-3-fluorophenyl)oxazolidin-2-one] | – | MIC ([2]; H37RV): 27.5 µg/mL (≈ 70.5 µM)
13 | CCCC(=O)NC[C@H]1CN(c2cc(F)c(N3CCCSCCC3)c(F)c2)C(=O)O1 [OBD-026, (S)—N-((3-(3,5-difluoro-4-(1,5-thiazocan-5-yl)phenyl)-2-oxooxazolidin-5-yl)methyl) butyramide] | 0.4 µg/mL (≈ 0.936 µM) | –
14 | CC(=O)NC[C@H]1CN(c2cc(F)c(N3CCCSCCC3)c(F)c2)C(=O)O1 [OBD-027] | – | MIC ([2]; H37RV): 0.3 µg/mL (≈ 0.751 µM)
15 | COC(=O)NC[C@H]1CN(c2cc(F)c(N3CC4CCC(C3)O4)c(F)c2)C(=O)O1 [OBD-049] | 0.25 to 1 µg/mL (≈ 0.629 to 2.52 µM) | –
16 | NC[C@H]1CN(c2cc(F)c(N3CC4(COC4)C3)c(F)c2)C(=O)O1 [OBD-062] | 0.1 to 0.25 µg/mL (≈ 0.307 to 0.768 µM) | –
17 | CNC[C@H]1CN(c2ccc(N3CCCSCC3)c(F)c2)C(=O)O1 [OTB-109, (S)-3-[3-Fluoro-4-(1,4-thiazepan-4-yl)phenyl]-5-[(methylamino)methyl]oxazolidin-2-one] | 32 µg/mL (≈ 94.3 µM) | –
18 | O=C(NC[C@H]1CN(c2ccc(N3CCCSCCC3)c(F)c2)C(=O)O1)c1cccs1 [OTB-118, (S)—N-[[3-(3-Fluoro-4-(1,5-thiazocan-5-yl)phenyl)-2-oxo-oxazolidin-5-yl]methyl]thiophene-2-carboxamide] | 1.55 µg/mL (≈ 3.44 µM) | –

Row | Compound | MIC [2, 4] | other results
19 | CC(=O)NC[C@H]1CN(c2ccc(N3CCC[S+]([O-])CCC3)c(F)c2)C(=O)O1 [OTB-124, (S)—N-[[3-(3-Fluoro-4-(1-oxido-1,5-thiazocan-5-yl)phenyl)-2-oxo-oxazolidin-5-yl]methyl]acetamide] | 0.26 to 1.4 µg/mL (≈ 0.654 to 3.52 µM) | –
20 | O=C1O[C@@H](CO)CN1c1ccc(N2CC3(COC3)C2)c(F)c1 [OTB-201, (R)-3-(3-Fluoro-4-(2-oxa-6-azaspiro[3.3]heptan-6-yl)phenyl)-5-(hydroxymethyl)oxazolidin-2-one] | 16 µg/mL (≈ 51.9 µM) | –
21 | O=C(NC[C@H]1CN(c2ccc(N3CC4(COC4)C3)c(F)c2)C(=O)O1)c1ccco1 [OTB-205, (S)—N-((3-(3-Fluoro-4-(2-oxa-6-azaspiro[3.3]heptan-6-yl)phenyl)-2-oxo-oxazolidin-5-yl)methyl)furan-2-carboxamide] | 3.9 µg/mL (≈ 9.72 µM) | –
22 | O=C(NC[C@H]1CN(c2ccc(N3CC4(COC4)C3)c(F)c2)C(=O)O1)c1cccs1 [OTB-206, (S)—N-((3-(3-Fluoro-4-(2-oxa-6-azaspiro[3.3]heptan-6-yl)phenyl)-2-oxo-oxazolidin-5-yl)methyl)thiophene-2-carboxamide] | 2.8 µg/mL (≈ 6.71 µM) | –
23 | CS(=O)(=O)NC[C@H]1CN(c2ccc(N3CC4(COC4)C3)c(F)c2)C(=O)O1 [OTB-222, (R)—N-((3-(3-Fluoro-4-(2-oxa-6-azaspiro[3.3]heptan-6-yl)phenyl)-2-oxo-oxazolidin-5-yl)methyl)methanesulfonamide] | 7.4 µg/mL (≈ 19.2 µM) | –
24 | COC(=O)NC[C@H]1CN(c2ccc(N3CC4(COC4)C3)c(F)c2)C(=O)O1 [OTB-223, Methyl (S)-((3-(3-fluoro-4-(2-oxa-6-azaspiro[3.3]heptan-6-yl)phenyl)-2-oxo-oxazolidin-5-yl)methyl)carbamate] | 0.8 to 2.6 µg/mL (≈ 2.19 to 7.12 µM) | –
25 | O=C1O[C@@H](Cn2ccnn2)CN1c1cc(F)c(N2CC3(COC3)C2)c(F)c1 [OTB-234, (R)-5-((1H-1,2,3-Triazol-1-yl)methyl)-3-(3,5-difluoro-4-(2-oxa-6-azaspiro[3.3]heptan-6-yl)phenyl)oxazolidin-2-one] | 0.39 to 4 µg/mL (≈ 1.03 to 10.6 µM) | –
26 | CS(=O)(=O)NC[C@H]1CN(c2ccc(N3[C@@H]4CC[C@H]3CSC4)c(F)c2)C(=O)O1 [OTB-236, N—(((R)-3-(4-((1R,5S)-3-Thia-8-azabicyclo[3.2.1]octan-8-yl)-3-fluorophenyl)-2-oxo-oxazolidin-5-yl)methyl)methanesulfonamide] | – | MIC ([2]; H37RV): 14.3 µg/mL (≈ 34.3 µM)
27 | O=C(NC[C@H]1CN(c2cc(F)c(N3CC4(CSC4)C3)c(F)c2)C(=O)O1)C1CCC1 [OTB-244, (S)—N-((3-(3,5-Difluoro-4-(2-thia-6-azaspiro[3.3]heptan-6-yl)phenyl)-2-oxo-oxazolidin-5-yl)methyl)cyclobutanecarboxamide] | 0.02 to 0.6 µg/mL (≈ 0.0472 to 1.42 µM) | –
28 | O=C(NC[C@H]1CN(c2ccc(N3CC4(CSC4)C3)c(F)c2)C(=O)O1)C1CC1 [OTB-249] | 0.06 to 0.15 µg/mL (≈ 0.153 to 0.383 µM) | –
29 | O=C(NC[C@H]1CN(c2ccc(N3CC4(CSC4)C3)c(F)c2)C(=O)O1)C1CCC1 [OTB-250] | 0.06 µg/mL (≈ 0.148 µM) | –
30 | O=C(NC[C@H]1CN(c2ccc(N3CCCSCC3)c(F)c2)C(=O)O1)C1CCC1 [OTB-414, (S)—N-((3-(3-Fluoro-4-(1,4-thiazepan-4-yl)phenyl)-2-oxooxazolidin-5-yl)methyl)cyclobutanecarboxamide] | 0.171 µg/mL (≈ 0.42 µM) | –
31 | O=C1O[C@@H](CO)CN1c1ccc(N2[C@@H]3CC[C@H]2CSC3)c(F)c1 [OTB-501, (R)-3-(4-((1R,5S)-3-Thia-8-azabicyclo[3.2.1]octan-8-yl)-3-fluorophenyl)-5-(hydroxymethyl)oxazolidin-2-one] | – | MIC ([2]; H37RV): 4.5 µg/mL (≈ 13.3 µM)
32 | CC(=O)NC[C@H]1CN(c2ccc(N3[C@@H]4CC[C@H]3C[S+]([O-])C4)c(F)c2)C(=O)O1 (stereo partly drawn) [OTB-503, N-(((5S)-3-(3-Fluoro-4-((1R,5S)-3-oxido-3-thia-8-azabicyclo[3.2.1]octan-8-yl)phenyl)-2-oxo-oxazolidin-5-yl)methyl)acetamide] | – | MIC ([2]; H37RV): 0.2 to 1.3 µg/mL (≈ 0.506 to 3.29 µM)
33 | O=C1O[C@@H](Cn2ccnn2)CN1c1ccc(N2[C@@H]3CC[C@H]2CSC3)c(F)c1 [OTB-504, (R)-5-((1H-1,2,3-Triazol-1-yl)methyl)-3-(4-((1R,5S)-3-thia-8-azabicyclo[3.2.1]octan-8-yl)-3-fluorophenyl)oxazolidin-2-one] | – | MIC ([2]; H37RV): 0.5 to 0.7 µg/mL (≈ 1.28 to 1.8 µM)
34 | O=C1O[C@@H](Cn2ccnn2)CN1c1ccc(N2[C@@H]3CC[C@H]2C[S+]([O-])C3)c(F)c1 (stereo partly drawn) [OTB-505, (5R)-5-((1H-1,2,3-Triazol-1-yl)methyl)-3-(3-fluoro-4-((1R,5S)-3-oxido-3-thia-8-azabicyclo[3.2.1]octan-8-yl)phenyl)oxazolidin-2-one] | – | MIC ([2]; H37RV): 1.8 to 3.5 µg/mL (≈ 4.44 to 8.63 µM)
35 | O=C1O[C@@H](Cn2ccnn2)CN1c1cc(F)c(N2[C@@H]3CC[C@H]2CSC3)c(F)c1 [OTB-511, (R)-5-((1H-1,2,3-Triazol-1-yl)methyl)-3-(4-((1R,5S)-3-thia-8-azabicyclo[3.2.1]octan-8-yl)-3,5-difluorophenyl)oxazolidin-2-one] | – | MIC ([2]; H37RV): 0.06 to 0.2 µg/mL (≈ 0.147 to 0.491 µM)
36 | (R)-5-((1H-1,2,3-Triazol-1-yl)methyl)-3-(3-fluoro-4-(2-oxa-6-azaspiro[3.3]heptan-6-yl)phenyl)oxazolidin-2-one [OTB-203] | – | MIC (μg/mL) against H37Rv [2, 4]: >32 µg/mL
